The values that follow come from PubChem BioAssay AID1552 (Sanford-Burnham Center for Chemical Genomics, 2009).

Activity calls are given as the source filed them. No rule for the calls is given here.

The target of this test is Ubiquitin-conjugating enzyme E2 N (Homo sapiens) (UniProt P61088). Description: UBE2N binders by NMR, biophysical, purified protein (AID 1552). Conditions: NMR binding to purified UBE2N.
Sequence of Ubiquitin-conjugating enzyme E2 N (Homo sapiens) (P61088 whole entry, looked up): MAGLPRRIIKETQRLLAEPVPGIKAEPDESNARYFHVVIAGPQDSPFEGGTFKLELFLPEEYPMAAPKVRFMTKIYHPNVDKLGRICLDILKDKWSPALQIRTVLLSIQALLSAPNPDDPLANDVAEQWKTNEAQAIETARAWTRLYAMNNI

Regarding `O=C(C1CCC(C(=O)N2CCCC2)CC1)N1CCCC1` (stereo unspecified), the Kd was > 4 mM (inactive).
As for `Nc1nc(-c2ccc(Cl)cc2)nn1C(=O)c1cccnc1`, the figure is > 4 mM (inactive); as for `CC(=O)Nc1ccc(N2CCOCC2)cc1`, > 4 mM (inactive); as for `CC1(C)C=Cc2c(cc3occ(-c4ccc5c(c4)OCO5)c(=O)c3c2O)O1`, > 4 mM (inactive).
`Nc1ncnc2c1ncn2CCN1CCCCC1`: the Kd was > 4 mM (inactive).
As to `CC1(C)CC(=O)c2sc(N)nc2C1`, the Kd is > 4 mM (inactive).
The figure for `O=c1cc(O)n(-c2ccc(F)cc2)c(=S)[nH]1` is > 4 mM (inactive); for `CCCCN1C(=O)N(C)C2NC(=O)NC21` (stereo unspecified) it is > 4 mM (inactive).
As for `O=C1CCC(=O)N1c1nc2ccccc2s1`, the Kd is > 4 mM (inactive).
As for `COc1ccc2c3c1O[C@H]1C[C@@H](O)C=C[C@@]31CCN(C)C2`, the figure is > 4 mM (inactive); as for `Cc1ccc(NC(=O)CN2C(=O)CSC2=O)cc1`, > 4 mM (inactive); as for `O=C(O)c1ccc2snnc2c1`, > 4 mM (inactive).
Consider `COc1cccc(NC(=O)c2cccs2)c1`, for which the Kd is > 4 mM (inactive).
As for `O=C(Cc1cccs1)N1CCOCC1`, the figure is > 4 mM (inactive).
The figure for `Cc1nc2ccccc2c(=O)n1CCCn1ccnc1` is > 4 mM (inactive); for `CCOc1ccc2ccccc2c1C(=O)N1CCOCC1` it is > 4 mM (inactive); for `CN1C(=O)/C(=C/c2ccc(O)cc2O)SC1=S` it is > 4 mM (inactive).
On to `CC1CN(C2=NCCN2)CC(C)O1` (stereo unspecified), for which the Kd is > 4 mM (inactive).
As for `COc1cc2c(cc1OC)Cc1cc(OC)c(OC)cc1Cc1cc(OC)c(OC)cc1C2`, the figure is > 4 mM (inactive); as for `Cc1nc(-c2cc(CO)no2)cs1`, > 4 mM (inactive); as for `N/N=C1\CCCc2c1no[n+]2[O-]`, > 4 mM (inactive).
Take `CN(C)C(=S)Nc1ccc([N+](=O)[O-])cc1`: the Kd is > 4 mM (inactive).
As for `COC(=O)C[C@H]1C2(C)CC34OC5(C)O[C@@]6([C@H](OC)C(OC(=O)C(C)C)[C@]7(C)C(/C(=C(/OC)C(C)C)C(=O)O[C@H]7c7ccoc7)[C@@]6(O5)[C@H](OC)[C@@]3(OC)C2OC(C)=O)[C@]14C` (stereo partly specified), the figure is > 4 mM (inactive); as for `O=C(O)c1cccnc1-c1nc2ccccc2s1`, > 4 mM (inactive).
As to `CC1(C)C(=O)C=C[C@@]2(C)C1CC(=O)[C@]1(C)C2CC[C@@]2(C)[C@H](c3ccoc3)OC(=O)[C@H]3O[C@]321` (stereo partly specified), the Kd is > 4 mM (inactive).
The figure for `Cn1cccc1C=C1C(=O)NC(=S)NC1=O` is > 4 mM (inactive); for `O=C(CNC(=O)c1ccc(F)cc1)NC1=NCCS1` it is > 4 mM (inactive); for `NC(=O)NC1NC(=O)NC1=O` (stereo unspecified) it is > 4 mM (inactive).
As for `Nc1cc(=O)[nH]c(=S)n1-c1ccc(F)cc1`, the figure is > 4 mM (inactive); as for `Nc1ccc(O)cn1`, > 4 mM (inactive).
Consider `CC1CCCN(C/C(O)=C(\C#N)c2nc3ccccc3[nH]2)C1` (stereo unspecified), for which the Kd was > 4 mM (inactive).
As for `CC(C)(C)NC(=O)CN1C(=O)c2ccccc2S1(=O)=O`, the figure is > 4 mM (inactive).
As to `Nc1ncnc(NCCOCCO)c1[N+](=O)[O-]`, the Kd was > 4 mM (inactive).
In the case of `COCC(=O)Nc1nc2ccc(C)cc2s1`, the Kd was > 4 mM (inactive).
As for `Cc1cc(N2CCN(C)CC2)ncn1`, the Kd was > 4 mM (inactive).
As for `NCCCCN`, the figure is > 4 mM (inactive); as for `O=C(O)C1CCCN1Cc1c[nH]c2ccccc12` (stereo unspecified), > 4 mM (inactive); as for `Cc1nc(-c2cnccn2)sc1C(=O)O`, > 4 mM (inactive).
As for `O=C(Nc1cnccn1)c1ccncc1`, the figure is > 4 mM (inactive).
`CSc1ccc(C(=S)N2CCN(C)CC2)cc1`: the Kd was > 4 mM (inactive).
On to `Nc1ccc2c(c1)C(=O)OC2`, for which the Kd was > 4 mM (inactive).
The figure for `c1ccc(CSc2ncccn2)cc1` is > 4 mM (inactive); for `Cc1cccc(NC(=O)CN2C(=O)CNC2=O)c1` it is > 4 mM (inactive).
`CSc1cc(C)[nH]c(=O)n1`: the Kd was > 4 mM (inactive).
The figure for `O=C(NCc1n[nH]c(=O)c2ccccc12)C1CC1` is > 4 mM (inactive); for `CC(=O)Nc1sccc1C(=O)NC(N)=O` it is > 4 mM (inactive); for `O=C1CCC(c2cccs2)=NN1` it is > 4 mM (inactive).
As for `CC1=CC(=O)NC2C=CC=CC12` (stereo unspecified), the figure is > 4 mM (inactive); as for `O=C(O)c1ccc2ccccc2n1`, > 4 mM (inactive).
Take `O=C(NC1=NCCS1)c1ccc2snnc2c1`: the Kd is > 4 mM (inactive).
For `CC(=O)NC1(NC(C)=O)CCN(C)CC1`, the Kd is > 4 mM (inactive).
In the case of `O=C(O)CC1C(=O)NCCN1Cc1cccs1` (stereo unspecified), the Kd is > 4 mM (inactive).
The figure for `Cc1c(CO)cnn1-c1ccc(F)cc1` is > 4 mM (inactive); for `CC[C@H](/C=C/C(C)C1CCC2C3CCC4=CC(=O)CC[C@]4(C)C3CC[C@]12C)C(C)C` (stereo partly specified) it is > 4 mM (inactive).
In the case of `CC1(c2ccncc2)NC(=O)NC1=O` (stereo unspecified), the Kd was > 4 mM (inactive).
As for `NC1=NC(=O)C(Cc2ccccc2)S1` (stereo unspecified), the figure is > 4 mM (inactive).
The figure for `Nc1cccc(-n2cccc2)c1` is > 4 mM (inactive); for `Cc1ccccc1-n1c(-c2cccnc2)n[nH]c1=S` it is > 4 mM (inactive); for `N#Cc1sc2nc3c(c(-c4cccnc4)c2c1N)CCC3` it is > 4 mM (inactive).
Take `O=c1c2ccccc2[nH]c2ncccc12`: the Kd is > 4 mM (inactive).
Take `Cc1occc(=O)c1O`: the Kd is > 4 mM (inactive).
With `O=C(/C=C/c1ccc(O)cc1)c1ccc(O)cc1O`, the Kd is > 4 mM (inactive).
The figure for `CCOC(=O)c1sc(SC)c2c1CCCC2O` (stereo unspecified) is > 4 mM (inactive); for `OC1CNCc2cc3c(cc21)OCCO3` (stereo unspecified) it is > 4 mM (inactive); for `Cc1nc2ccc(C(=O)O)cc2nc1C` it is > 4 mM (inactive).
As for `NN1C(=O)/C(=C/c2ccc(O)c(O)c2)SC1=S`, the figure is > 4 mM (inactive); as for `Cc1cc(/C=N/O)nc(=O)[nH]1`, > 4 mM (inactive); as for `COc1cc(C2NC(=S)NC(C)=C2C(C)=O)ccc1O` (stereo unspecified), > 4 mM (inactive).
For the compound `O=c1[nH]c2c(c(=O)n1C1CCCCC1)CCC2`, the Kd was > 4 mM (inactive).
The figure for `OCc1csc(-c2ccccc2)n1` is > 4 mM (inactive); for `Cn1c(CO)nc2cc(N)ccc21` it is > 4 mM (inactive).

As usually defined, the Kd is the concentration at which binding is half-saturated.
